Assay results as given in patent publication US20110269811A1, “INHIBITORS OF SEMICARBAZIDE-SENSITIVE AMINE OXIDASE (SSAO) AND VAP-1 MEDIATED ADHESION USEFUL FOR TREATMENT AND PREVENTION OF DISEASES” (priority 2006, published 2011).

Legend:
[1] = system: antibody-mediated collagen-induced arthritis; experiment: Anti-collagen antibody-induced arthritis in mice; assay type: in vivo; conditions: 30 mg/kg, i.p., once daily, days 1-10; FIG. 4
Excerpt: Collagen-induced arthritis (CIA) in mice is widely used as an experimental model for rheumatoid arthritis (RA) in humans. CIA is mediated by autoantibodies to a particular region of type II collagen and complement. The murine CIA model used in this study is called antibody-mediated CIA, and can be induced by i.v. injection of a combination of different anti-type II collagen monoclonal antibodies (Terato K., et al. (1995). Autoimmunity. 22:137). Several compounds have been used to successfully block inflammation in this model, including anti-α1β1 and […] integrins monoclonal antibodies (de Fougerolles A. R. (2000) J. Clin. Invest. 105: 721).
In this example, arthrogen-collagen-induced arthritis antibody kits were purchased from Chemicon International (Temecula, Calif.) and arthritis was induced using the manufacturer's protocol. Mice were injected i.v. with a cocktail of 4 anti-collagen Type II monoclonal antibodies (1.5 mg each) on day 0, followed by i.p. injection of 25 μg lipopolysaccharide (LPS) on day 2. […] Severity of arthritis in each limb was scored for 3-4 weeks as follows: 0=normal; 1=mild redness, slight swelling of ankle or wrist; 2=moderate redness and swelling of ankle or wrist; 3=severe redness and swelling of some digits, ankle and paw; 4=maximally inflamed limb, with a maximum score of 16 per animal. […]

ETB (h) = target: T1, ETB (h) (Homo sapiens, UniProt P24530); experiment: Receptor binding screen, [^125I]endothelin-1; conditions: 10 uM Concentration of Compound I-1-Z; read-out: Mean Value, percent inhibition of control specific binding: ETB (h)
T1 construct: expressed in transfected cells; host or cells: CHO cells

M3 (h) = target: T2, M3 (h) (Homo sapiens, UniProt P20309); experiment: Receptor binding screen, [^3H]4-DAMP; conditions: 10 uM Concentration of Compound I-1-Z; read-out: Mean Value, percent inhibition of control specific binding: M3 (h)
T2 construct: expressed in transfected cells; host or cells: CHO cells

NK1 (h) = target: T3, NK1 (h) (Homo sapiens, UniProt P25103); experiment: Receptor binding screen, [^125I]BH-SP, U-373MG cells; conditions: 10 uM Concentration of Compound I-1-Z; read-out: Mean Value, percent inhibition of control specific binding: NK1 (h)
T3 construct: U-373MG cells; endogenous in cells; host or cells: U-373MG cells

κ (KOP) = target: T4, κ (KOP) (Cavia porcellus, UniProt P41144); experiment: Receptor binding screen, [^3H]U 69593, guinea-pig cerebellum; conditions: 10 uM Concentration of Compound I-1-Z; read-out: Mean Value, percent inhibition of control specific binding: κ (KOP)
T4 construct: cerebellum; from tissue; host or cells: guinea-pig cerebellum
Procedure: For Table 4 below, the specific ligand binding to the receptors is defined as the difference between the total binding and the nonspecific binding determined in the presence of an excess of unlabelled ligand. The results are expressed as a percent inhibition of control specific binding obtained in the presence of Compound I-1-Z. The IC50 values (concentration causing a half-maximal inhibition of control specific binding) and Hill coefficients (nH) were determined by non-linear regression analysis of the competition curves using Hill equation curve fitting. The inhibition constants (Ki) were calculated from the Cheng Prusoff equation (Ki=IC50/(1+(L/KD)), where L=concentration of radioligand in the assay, and KD=affinity of the radioligand for the receptor). In each experiment, the respective reference compound was tested concurrently with Compound I-1-Z in order to assess the assay suitability.

5-HT6 (h) = target: T5, 5-HT6 (h) (Homo sapiens, UniProt P50406); experiment: Receptor binding screen, [^3H]LSD; conditions: 10 uM Concentration of Compound I-1-Z; read-out: Mean Value, percent inhibition of control specific binding: 5-HT6 (h)
T5 construct: expressed in transfected cells; host or cells: CHO cells

[2] = system: experimental autoimmune encephalomyelitis; experiment: Experimental autoimmune encephalomyelitis (EAE), MOG peptide 35-55; assay type: in vivo, C57BL/6 mice; conditions: 40 mg/kg/dose once daily i.p. for 30 consecutive days
Procedure: SSAO/VAP-1 is expressed on the endothelium of inflamed tissues/organs including brain and spinal cord. Its ability to support lymphocyte transendothelial migration may be an important systemic function of SSAO/VAP-1 in inflammatory diseases such as multiple sclerosis and Alzheimer's disease. An analysis of the use of SSAO inhibitors to treat inflammatory disease of the central nervous system (CNS) was performed through the use of an experimental autoimmune encephalomyelitis model (EAE) in C57BL/6 mice. EAE in rodents is a well-characterized and reproducible animal model of multiple sclerosis in human (Benson J. M. et al. (2000) J. Clin. Invest. 106:1031). Multiple sclerosis is a chronic immune-mediated disease of the CNS characterized by patchy perivenular inflammatory infiltrates in areas of demyelination and axonal loss. As an animal model, EAE can be induced in mice by immunization with encephalitogenic myelin antigens in the presence of adjuvant. […]
To examine the role of SSAO/VAP-1 as a major regulator of the lymphocyte recruitment to the CNS, compound II-1-E, an SSAO inhibitor, was evaluated in an EAE model.
Twenty female C57BL/6 mice were immunized subcutaneously (s.c). with myelin oligodendrocyte glycoprotein 35-55 (MOG peptide 35-55) in Complete Freund Adjuvant (CFA) on day 0, followed by i.p. injections of 500 ng pertussis toxin (one pertussis toxin injection on day 0, a second pertussis toxin injection on day 2). Groups of 10 mice received either compound II-1-E 40 mg/kg/dose, once daily i.p. for 30 consecutive days), or vehicle control (once/day for 30 consecutive days) all starting from one day after the immunization and all administered i.p. The animals were monitored for body weight, signs of paralysis and death according to a 0-5 scale of scoring system as follows: 1=limp tail or waddling gait with tail tonicity; 2=waddling gait with limp tail (ataxia); 2.5=ataxia with partial limb paralysis; 3=full paralysis of one limb; 3.5=full paralysis of one limb with partial paralysis of second limb; 4=full paralysis of two limbs; 4.5=moribund; 5=death. […]

T3 sequence (P25103 whole entry): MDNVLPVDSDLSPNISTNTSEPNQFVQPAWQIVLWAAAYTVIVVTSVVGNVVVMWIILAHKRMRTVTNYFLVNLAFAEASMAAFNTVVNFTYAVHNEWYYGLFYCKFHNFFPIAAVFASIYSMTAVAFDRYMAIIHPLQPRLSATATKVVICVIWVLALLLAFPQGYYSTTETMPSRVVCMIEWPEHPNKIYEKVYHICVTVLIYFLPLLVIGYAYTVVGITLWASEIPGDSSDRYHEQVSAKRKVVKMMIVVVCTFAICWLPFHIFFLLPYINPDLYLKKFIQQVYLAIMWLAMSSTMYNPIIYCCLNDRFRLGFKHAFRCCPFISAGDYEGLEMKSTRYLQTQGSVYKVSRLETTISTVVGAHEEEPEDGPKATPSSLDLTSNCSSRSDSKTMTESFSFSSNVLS
T5 sequence (P50406 whole entry): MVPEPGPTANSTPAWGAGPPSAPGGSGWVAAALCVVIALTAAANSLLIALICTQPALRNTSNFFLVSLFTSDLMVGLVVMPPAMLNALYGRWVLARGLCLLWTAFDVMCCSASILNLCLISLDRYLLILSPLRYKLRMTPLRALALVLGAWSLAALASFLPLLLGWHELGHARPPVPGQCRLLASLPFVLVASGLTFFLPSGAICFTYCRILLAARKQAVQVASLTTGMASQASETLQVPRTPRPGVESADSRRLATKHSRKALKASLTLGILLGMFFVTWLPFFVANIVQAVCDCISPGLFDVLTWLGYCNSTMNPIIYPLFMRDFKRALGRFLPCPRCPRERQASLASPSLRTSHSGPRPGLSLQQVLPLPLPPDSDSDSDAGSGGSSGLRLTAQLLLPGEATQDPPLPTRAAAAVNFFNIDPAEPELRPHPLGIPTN
T2 sequence (P20309 whole entry): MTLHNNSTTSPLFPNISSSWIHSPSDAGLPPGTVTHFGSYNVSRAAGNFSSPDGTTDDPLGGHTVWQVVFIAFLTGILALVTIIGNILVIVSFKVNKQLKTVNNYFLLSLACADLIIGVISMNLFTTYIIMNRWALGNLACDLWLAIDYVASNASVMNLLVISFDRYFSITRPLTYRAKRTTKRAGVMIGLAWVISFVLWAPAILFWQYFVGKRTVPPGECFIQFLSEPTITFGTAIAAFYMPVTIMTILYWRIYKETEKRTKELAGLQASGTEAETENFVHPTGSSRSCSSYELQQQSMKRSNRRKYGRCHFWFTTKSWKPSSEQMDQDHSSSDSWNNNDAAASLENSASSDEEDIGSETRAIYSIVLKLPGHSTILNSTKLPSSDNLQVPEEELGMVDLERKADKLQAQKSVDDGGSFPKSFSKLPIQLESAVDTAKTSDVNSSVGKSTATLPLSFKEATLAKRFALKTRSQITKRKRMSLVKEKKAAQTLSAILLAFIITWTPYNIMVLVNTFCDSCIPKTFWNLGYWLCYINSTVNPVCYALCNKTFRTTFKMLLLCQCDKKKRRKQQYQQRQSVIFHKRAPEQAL
T4 sequence (P41144 whole entry): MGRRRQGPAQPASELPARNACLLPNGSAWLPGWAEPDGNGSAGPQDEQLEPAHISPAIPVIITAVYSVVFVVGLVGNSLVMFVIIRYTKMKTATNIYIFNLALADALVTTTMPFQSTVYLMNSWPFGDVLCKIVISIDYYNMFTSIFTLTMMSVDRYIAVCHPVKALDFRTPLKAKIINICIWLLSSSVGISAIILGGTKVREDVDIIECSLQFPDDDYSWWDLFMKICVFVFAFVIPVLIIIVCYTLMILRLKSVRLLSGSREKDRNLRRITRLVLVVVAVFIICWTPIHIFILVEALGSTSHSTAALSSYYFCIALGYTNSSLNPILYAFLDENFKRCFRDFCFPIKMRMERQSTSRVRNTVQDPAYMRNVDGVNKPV
T1 sequence (P24530 27-442): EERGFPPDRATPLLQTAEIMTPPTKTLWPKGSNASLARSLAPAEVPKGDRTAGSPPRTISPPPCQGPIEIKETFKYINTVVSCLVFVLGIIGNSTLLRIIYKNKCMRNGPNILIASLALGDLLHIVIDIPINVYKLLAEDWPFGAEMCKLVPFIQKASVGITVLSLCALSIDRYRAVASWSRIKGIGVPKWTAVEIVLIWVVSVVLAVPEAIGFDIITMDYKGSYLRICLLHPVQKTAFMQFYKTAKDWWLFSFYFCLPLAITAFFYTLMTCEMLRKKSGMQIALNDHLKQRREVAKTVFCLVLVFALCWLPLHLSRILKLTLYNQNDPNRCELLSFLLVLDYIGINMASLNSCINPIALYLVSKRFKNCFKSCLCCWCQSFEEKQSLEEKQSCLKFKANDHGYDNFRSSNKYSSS

Row | Structure (SMILES) | final arthritis score and paw swelling [1] | inhibition at 10 µM (ETB (h)) [%] | inhibition at 10 µM (M3 (h)) [%] | inhibition at 10 µM (NK1 (h)) [%] | inhibition at 10 µM (κ (KOP)) [%] | inhibition at 10 µM (5-HT6 (h)) [%] | day until which similar clinical scores between the two groups was not reached [2] [days] | mean clinical score of the treated group from day 14 onward [2] | day at which disease reached 100% incidence ([2]; control group day 13) [days]
1 | COc1ccc(C/C(=C/F)CN)cc1.Cl [Compound I-1-Z, (Z)-3-Fluoro-2-(4-methoxybenzyl)-allylamine hydrochloride] | clearly reduced | -5 | 16 | -6 | -18 | 1 | – | – | –
2 | NC/C(F)=C\Cc1cc(F)cc(C(F)(F)F)c1 [II-1-E, (E)-2-Fluoro-4-(3-fluoro-5-trifluoromethylphenyl)-but-2-enylamine] | – | – | – | – | – | – | 38 | well below that in the control group | 24
